Experimental data published in patent publication US20250163104A1, “MACROCYCLIC IMMUNOMODULATORS” (priority 2021, published 2025).
Where a SMILES comes first, the peptide text is derived from it. Bridges are numbered along the chain shown (N, C = ends). [ ]: non-standard residue; d: D form. The star is where a group is joined. Bip = N[C@@H](Cc1ccc(-c2ccccc2)cc1)C(=O)O; Phe(3-Me) = Cc1cccc(C[C@H](N)C(=O)O)c1; 4Pal = N[C@@H](Cc1ccncc1)C(=O)O; Cha = N[C@@H](CC1CCCCC1)C(=O)O; Carboxymethyl = O=C(O)C*; Orn = NCCC[C@H](N)C(=O)O; Pra = C#CC[C@H](N)C(=O)O; Dab = NCC[C@H](N)C(=O)O; Dap = NC[C@H](N)C(=O)O

These compounds were tested against T1, human PD-1 / PD-L1-Ig binding on Jurkat cell line over-expressing human PD-1 (Jurkat-PD-1) (Homo sapiens, UniProt Q15116) (assay: Jurkat-PD-1 Cell Binding High-Content Screening Assay (CBA)). Conditions: Jurkat-PD-1 cells, PE-labeled PD-L1-Ig 20 nM final; read-out: Jurkat HPD1_PDL1 IC50.
T1 construct: expressed in transfected cells; host or cells: Jurkat
T1 sequence (Q15116 25-288): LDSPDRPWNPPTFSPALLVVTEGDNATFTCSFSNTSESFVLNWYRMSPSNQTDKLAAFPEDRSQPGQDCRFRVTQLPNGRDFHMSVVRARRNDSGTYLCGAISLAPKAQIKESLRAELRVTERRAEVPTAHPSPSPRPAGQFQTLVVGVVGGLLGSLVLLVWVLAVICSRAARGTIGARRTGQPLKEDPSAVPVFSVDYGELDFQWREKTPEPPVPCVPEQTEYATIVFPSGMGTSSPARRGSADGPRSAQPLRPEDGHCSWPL
Type: cell-based
In short: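 Compounds were preincubated with Jurkat-hPD-1 cells in DMEM plus 10% fetal calf serum for 2 h at 37° C. Phycoerythrin-labeled PD-L1-Ig (20 nM final) was then added for 1 hour. Cells were fixed in 4% paraformaldehyde with Hoechst 33342, and bound fluorescence was quantified by high-content imaging.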

Compound | IC50 [µM]
CCC(C)[C@@H]1NC(=O)[C@H](Cc2ccc(-c3ccccc3)cc2)NC(=O)[C@H](C(C)C)NC(=O)[C@H](Cc2cc(OC)ccc2F)NC(=O)[C@H](CC(=O)O)NC(=O)[C@H](Cc2ccc(OCC(=O)O)cc2)NC(=O)[C@H](CN)NC(=O)CSC[C@@H](C(=O)N[C@@H](C)C(N)=O)NC(=O)[C@H]([C@@H](C)O)NC(=O)[C@H](C(C)C)NC(=O)[C@H](CC2CCCCC2)NC(=O)[C@H](CCN)NC(=O)[C@@H](CC(C)C)NC(=O)[C@H](CCCN)NC1=O (stereo partly drawn) [Compound 2248] | 0.0138
CC(C)C[C@@H]1NC(=O)[C@H](Cc2c[nH]c3ccccc23)NC(=O)[C@H](CC(=O)O)NC(=O)[C@H](Cc2ccncc2)NC(=O)[C@H](Cc2ccc(OCC(=O)O)cc2)NC(=O)CSC[C@@H](C(=O)NCC(N)=O)NC(=O)[C@H](CO)NC(=O)[C@H](C(C)C)NC(=O)[C@H](CC(C)C)NC(=O)[C@H](CC(N)=O)NC(=O)[C@@H](CC(C)C)NC(=O)[C@H](CN)NC(=O)[C@H](C(C)C)NC(=O)[C@H](Cc2ccc(-c3ccccc3)cc2)NC1=O [Compound 1278] ({CH2CO}-Y(Carboxymethyl)[4Pal]DWL[Bip]V[Dap][dL]NLVSCG-NH2; thioether N-14) | 0.0273
CCC[C@@H]1NC(=O)[C@H](Cc2c[nH]c3ccccc23)NC(=O)[C@H](CC(=O)O)NC(=O)[C@H](Cc2ccc(OCC(=O)O)cc2)NC(=O)[C@H](CN)NC(=O)CSC[C@@H](C(=O)N[C@@H](C)C(N)=O)NC(=O)[C@H]([C@@H](C)O)NC(=O)[C@H](C(C)C)NC(=O)[C@H](CC2CCCCC2)NC(=O)[C@H](CCN)NC(=O)[C@@H](CC(C)C)NC(=O)[C@H](CCCN)NC(=O)[C@H](C(C)C)NC(=O)[C@H](Cc2ccc(-c3ccccc3)cc2)NC1=O [Compound 1735] | 0.0136

Second part, the compound after the results:

IC50 [µM] | Compound
0.0095 | Cc1cccc(C[C@@H]2NC(=O)[C@H](CC(=O)O)NC(=O)[C@H](Cc3ccc(OCC(=O)O)cc3)NC(=O)[C@H]([C@@H](C)O)NC(=O)CSC[C@@H](C(N)=O)NC(=O)[C@H](CCCN)NC(=O)[C@H](C(C)C)NC(=O)[C@H](CC3CCCCC3)NC(=O)[C@H](CCN)NC(=O)[C@@H](CC(C)C)NC(=O)[C@H](CCCN)NC(=O)[C@H](Cc3ccc(OCC(=O)O)cc3)NC(=O)[C@H](Cc3ccc(-c4ccccc4)cc3)NC(=O)[C@H](Cc3ccc(OCC(=O)O)cc3)NC2=O)c1 [Compound 1802] ({CH2CO}-TY(Carboxymethyl)D[Phe(3-Me)]Y(Carboxymethyl)[Bip]Y(Carboxymethyl)[Orn][dL][Dab][Cha]V[Orn]C-NH2; thioether N-14)
0.0108 | C#CC[C@H](NC(=O)[C@H](CCN)NC(=O)[C@@H]1CSCC(=O)N[C@@H](CN)C(=O)N[C@@H](Cc2ccc(OCC(=O)O)cc2)C(=O)N[C@@H](CC(=O)O)C(=O)N[C@@H](Cc2cccc(C)c2)C(=O)N[C@@H](Cc2ccc(OCC(=O)O)cc2)C(=O)N[C@@H](Cc2ccc(-c3ccccc3)cc2)C(=O)N[C@@H](Cc2ccc(OCC(=O)O)cc2)C(=O)N[C@@H](CCCN)C(=O)N[C@H](CC(C)C)C(=O)N[C@@H](CCN)C(=O)N[C@@H](CC2CCCCC2)C(=O)N[C@@H](C(C)C)C(=O)N[C@@H](CO)C(=O)N1)C(N)=O [Compound 1861] ({CH2CO}-[Dap]Y(Carboxymethyl)D[Phe(3-Me)]Y(Carboxymethyl)[Bip]Y(Carboxymethyl)[Orn][dL][Dab][Cha]VSC[Dab][Pra]-NH2; thioether N-14)
0.0054 | Cc1cccc(C[C@@H]2NC(=O)[C@H](CC(=O)O)NC(=O)[C@H](Cc3ccc(OCC(=O)O)cc3)NC(=O)[C@H](Cc3ccncc3)NC(=O)CSC[C@@H](C(=O)N[C@@H](C)C(N)=O)NC(=O)[C@H]([C@@H](C)O)NC(=O)[C@H](C(C)C)NC(=O)[C@H](CC3CCCCC3)NC(=O)[C@H](CCN)NC(=O)[C@@H](CC(C)C)NC(=O)[C@H](CCCN)NC(=O)[C@H](C(C)C)NC(=O)[C@H](Cc3ccc(-c4ccccc4)cc3)NC(=O)[C@H](C(C)C)NC2=O)c1 [Compound 1200]
